Tests used:
[1] = Effect of drugs on exosome number and miR-451 enrichment in exosomes; type: cell-based; settings: treatment of exosome-producing cells
Description: A variety of cellular factors which may affect nucleic acid construct packaging in exosomes using methods as described herein were studied. Specifically, effects of over-expression of mutant Ras, mutant Myc, wild-type Ago2, and siRNA depletion of Translin were studied. […] The effect of several drugs was also tested, such as mTOR inhibitors and lysosomal/autophagy inhibitors which are clinically used. […] Lysosomal/autophagy inhibitors tested include Bafilomycin A1, concanamycin, and NAADP-AM.

[2] = tested on: mouse embryonic fibroblast cells; experiment: Exosomal enrichment of synthetic RNA constructs mimicking pre-miR-451 processing stages (RT-qPCR); type: cell-based; settings: synthetic RNA transfected, FIG. 9(E)
Description: Synthetic RNA constructs mimicking WT pre-miR-451 at various processing stages were tested for exosomal enrichment. Constructs were transfected into cells, and exosome enrichment was measured by RT-qPCR after exosome purification by differential centrifugation. miR-451 derived mature siRNA was normalized to levels of let-7a and miR-16 in exosomes vs. cells. Constructs tested include WT pre-mIR-451 construct following Drosha processing (A), an Ago2-cleaved version of the construct (B), and a mature 22 nt miR-451 (post exonuclease activity, having a 5′ targeting portion including a portion of the loop region) (C). For comparison, a standard 21 nt dsRNA siRNA with 3′ overhangs (D) was also tested. Exosomal enrichment results are shown in (E);
Constructs were accordingly designed which mimic WT pre-miR-451 at various processing stages, and tested for exosomal enrichment. Constructs tested are graphically depicted in FIG. 9. […]
RNAs corresponding to 42 nt pre-miR-451 with an inserted GFP siRNA, or the same construct up to the Ago2 cleavage site, or the fully mature form of miR-451 produced GFP siRNA (single-stranded 22 nt RNA), or double-stranded GFP siRNA with 2 nt 3′ overhangs were synthesized by IDT. […] Two days later exosomes were purified and levels of mature GFP siRNA in exosomes was quantified by RT-qPCR.

Molecule | Effect on exosome number [1] | Exosomal enrichment among constructs mimicking processing stages (normalized to let-7a and miR-16, exosomes vs. cells) [2] | Exosomal enrichment compared with standard dsRNA siRNA with 3′ overhangs [2]
CO/C1=C\C(C)=C\[C@@H](C)[C@@H](O)[C@@H](C)C/C(C)=C/C=C/[C@H](OC)[C@@H]([C@@H](C)[C@@H](O)[C@H](C)[C@@]2(O)C[C@@H](O)[C@H](C)[C@@H](C(C)C)O2)OC1=O [Bafilomycin A1] | increased exosome number | – | –
C/C=C/[C@H]1O[C@@](O)([C@@H](C)[C@H](O)[C@H](C)[C@H]2OC(=O)/C(OC)=C/C(C)=C/[C@@H](C)[C@@H](O)[C@@H](CC)[C@@H](O)[C@H](C)C/C(C)=C/C=C/[C@@H]2OC)C[C@@H](O)[C@@H]1C [concanamycin] | increased exosome number | – | –
AUGAACUUCAGGGUCAGCUUGC (listed as RNA, chemistry not fully specified) [fully mature ss, fully mature form of miR-451 produced GFP siRNA, single-stranded 22 nt RNA] | – | most strongly exosome-enriched construct | higher than dsRNA
NAADP-AM | increased exosome number | – | –

From patent publication US10851372B2, “Exosome packaging of nucleic acids” (University of Ottawa, priority 2015, dated 2020)
